GI50 and IC50 data for four compounds are collected here from ChEMBL document CHEMBL1130905, “Asymmetric synthesis of antimitotic combretadioxolane with potent antitumor activity against multi-drug resistant cells” (Bioorg Med Chem Lett, 1998).

Bounds are passed on as bounds.

The test system of assay [1] is PC-12. The assay can be described thus: Compound was evaluated for in vitro growth inhibition activity against multi drug resistant (MDR) PC-12 cell line. It counts as functional. As to conditions: Rattus norvegicus.
Assay [2] concerns PC-6. The assay can be described thus: Compound was evaluated for in vitro growth inhibition activity against sensitive PC-6 cell line. It counts as functional, Rattus norvegicus.
For assay [3], the target named is T1, Tubulin (Sus scrofa, UniProt P02554+P02550). As to the kind of experiment: In vitro tubulin polymerization-inhibitory activity; 4-6. It is filed as protein assay.
Assay [4] deals with T1, Tubulin. As to the kind of experiment: In vitro tubulin polymerization-inhibitory activity. It is filed as protein assay.

Consider `CC[C@]1(O)C[C@H]2CN(CCc3c([nH]c4ccccc34)[C@@](C(=O)OC)(c3cc4c(cc3OC)N(C=O)[C@H]3[C@@](O)(C(=O)OC)[C@H](OC(C)=O)[C@]5(CC)C=CCN6CC[C@]43[C@@H]65)C2)C1` [VINCRISTINE], for which the GI50 in assay [1] was 104 nM; in assay [2] (Homo sapiens), 1.14 nM.

As for `COc1ccc([C@@H]2OCO[C@H]2c2cc(OC)c(OC)c(OC)c2)cc1O`, the figures for the GI50 in assay [1] and in assay [2] (Homo sapiens) were 5.19 nM and 5.41 nM, respectively. This compound also had an IC50 in assay [3] of 4000 nM.

Take `COc1ccc([C@H]2OCO[C@@H]2c2cc(OC)c(OC)c(OC)c2)cc1O`: in assay [4], the IC50 is > 50000 nM.

On to CISPLATIN, for which the GI50 stood at 300 nM in assay [1] and 563 nM in assay [2] (Rattus norvegicus).
